According to patent US20240336572A1, “SUBSTITUTED INDAZOLE PROPIONIC ACID DERIVATIVE COMPOUNDS AND USES THEREOF” (Pfizer Inc., priority 2023, published 2024):

Assays:
[1] = molecular target: T1, AMPK 111 (Homo sapiens, UniProt Q13131+Q9Y478); test: Biochemical profiling of AMPK activators by AMPK111 (HTRF/TR-FRET assay, SAMS peptide, PP2A dephosphorylation protection); settings: for EC50: phosphorylated AMPK 111 (α1β1δ1 as printed), 11 point dilution, duplicate, 4-parameter fit; for Emax: phosphorylated AMPK 111, maximal activation
T1 construct: open reading frames encoding the full-length α1, β1 and δ1 subunits of human AMPK; made in house; host or cells: E. coli BL21-CodonPlus (DE3)-RIPL, pET-14b
Procedure: (§1) The biochemical EC50 (half-maximal concentration required for full activation) of compounds for the activation of AMPK was evaluated by HTRF assay using LANCE Ultra ULight-Acetyl-CoA Carboxylase (SAMS) peptide (commercially available, Perkin Elmer catalog TRF0133-M).
Following a fifteen-minute room temperature incubation, 5 μL of 30 nM protein phosphatase PP2A (isolation detailed above) diluted in the assay buffer was added to the plate, to dephosphorylate pThr172 of AMPK. […] The reaction was terminated after 60 minutes incubation at room temperature, by the addition of 5 μL of stop and detection cocktail, which consisted of 1× Perkin Elmer Lance buffer (Perkin Elmer catalog number CR97-100), 40 mM EDTA (Thermo Fisher catalog number BP2482-100), and 2 nM Eu-anti-Acetyl CoA Carboxylase [pSer70] antibody (Perkin Elmer, TRF0208-M).

[2] = molecular target: T2, AMPK 221 (Homo sapiens, UniProt O43741+P54646); test: Biochemical profiling of AMPK activators by AMPK221 (HTRF/TR-FRET assay, SAMS peptide, PP2A dephosphorylation protection); settings: for EC50: phosphorylated AMPK 221 (α2β2δ1), 11 point dilution, duplicate, 4-parameter fit; for Emax: phosphorylated AMPK 221, maximal activation
T2 construct: open reading frames encoding the full-length α2, β2 and δ1 subunits of human AMPK; made in house; host or cells: E. coli BL21-CodonPlus (DE3)-RIPL, pET-14b
Procedure: as §1
The reaction was terminated after 60 minutes incubation at room temperature by the addition of 5 μL of stop and detection cocktail, which consisted of 1× Perkin Elmer Lance buffer (Perkin Elmer catalog number CR97-100), 40 mM EDTA (Thermo Fisher catalog number BP2482-100), and 2 nM Eu-anti-Acetyl CoA Carboxylase [pSer70] antibody (Perkin Elmer, TRF0208-M). Plates were spun at 1000 RPM, 10 seconds.

T2 sequence (P54646 whole entry): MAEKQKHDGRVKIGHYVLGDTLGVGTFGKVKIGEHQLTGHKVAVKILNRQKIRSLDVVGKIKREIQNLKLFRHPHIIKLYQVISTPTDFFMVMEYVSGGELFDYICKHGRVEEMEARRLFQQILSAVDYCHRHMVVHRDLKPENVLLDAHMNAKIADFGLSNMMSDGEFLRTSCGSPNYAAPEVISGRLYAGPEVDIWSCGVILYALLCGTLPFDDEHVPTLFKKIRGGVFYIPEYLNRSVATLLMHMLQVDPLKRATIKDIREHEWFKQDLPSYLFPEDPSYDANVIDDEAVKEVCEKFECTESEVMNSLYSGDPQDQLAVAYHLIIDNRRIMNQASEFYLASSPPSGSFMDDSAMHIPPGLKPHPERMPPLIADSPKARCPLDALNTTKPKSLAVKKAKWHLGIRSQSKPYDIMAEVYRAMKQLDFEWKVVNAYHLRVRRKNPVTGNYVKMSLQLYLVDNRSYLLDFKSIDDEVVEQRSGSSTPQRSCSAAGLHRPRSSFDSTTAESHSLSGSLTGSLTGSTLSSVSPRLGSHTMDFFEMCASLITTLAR
T2 sequence (O43741 whole entry): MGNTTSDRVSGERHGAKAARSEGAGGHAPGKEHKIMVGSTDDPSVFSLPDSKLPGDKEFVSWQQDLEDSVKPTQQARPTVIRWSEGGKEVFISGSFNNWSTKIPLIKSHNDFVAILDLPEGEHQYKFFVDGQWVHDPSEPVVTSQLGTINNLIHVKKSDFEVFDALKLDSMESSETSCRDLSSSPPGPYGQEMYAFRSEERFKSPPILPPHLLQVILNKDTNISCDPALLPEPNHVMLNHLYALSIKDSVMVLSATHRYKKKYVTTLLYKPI
T2 sequence (P54619 whole entry partner): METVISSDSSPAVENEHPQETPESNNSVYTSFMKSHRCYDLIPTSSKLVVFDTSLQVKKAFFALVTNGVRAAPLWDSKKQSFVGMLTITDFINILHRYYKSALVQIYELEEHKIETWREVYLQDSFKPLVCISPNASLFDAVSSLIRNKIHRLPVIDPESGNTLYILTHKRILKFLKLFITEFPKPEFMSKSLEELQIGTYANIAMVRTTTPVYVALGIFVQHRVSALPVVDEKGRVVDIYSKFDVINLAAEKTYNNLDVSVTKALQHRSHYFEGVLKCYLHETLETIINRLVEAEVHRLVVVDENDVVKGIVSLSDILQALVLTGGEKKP
T1 sequence (Q13131 whole entry): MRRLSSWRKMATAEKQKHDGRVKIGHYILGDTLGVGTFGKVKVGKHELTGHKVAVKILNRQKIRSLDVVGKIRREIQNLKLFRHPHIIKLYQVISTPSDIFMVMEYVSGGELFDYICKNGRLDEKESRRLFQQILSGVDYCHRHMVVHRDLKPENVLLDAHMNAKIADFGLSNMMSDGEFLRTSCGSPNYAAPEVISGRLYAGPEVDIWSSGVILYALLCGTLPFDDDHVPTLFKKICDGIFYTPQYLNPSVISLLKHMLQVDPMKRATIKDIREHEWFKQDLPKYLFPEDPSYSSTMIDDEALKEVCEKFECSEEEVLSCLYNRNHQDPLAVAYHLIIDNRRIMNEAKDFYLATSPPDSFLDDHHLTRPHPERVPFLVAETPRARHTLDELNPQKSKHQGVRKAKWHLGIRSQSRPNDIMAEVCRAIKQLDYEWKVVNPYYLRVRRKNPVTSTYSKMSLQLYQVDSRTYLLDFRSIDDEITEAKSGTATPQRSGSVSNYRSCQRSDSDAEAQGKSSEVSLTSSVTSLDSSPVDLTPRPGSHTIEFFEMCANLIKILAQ
T1 sequence (Q9Y478 whole entry): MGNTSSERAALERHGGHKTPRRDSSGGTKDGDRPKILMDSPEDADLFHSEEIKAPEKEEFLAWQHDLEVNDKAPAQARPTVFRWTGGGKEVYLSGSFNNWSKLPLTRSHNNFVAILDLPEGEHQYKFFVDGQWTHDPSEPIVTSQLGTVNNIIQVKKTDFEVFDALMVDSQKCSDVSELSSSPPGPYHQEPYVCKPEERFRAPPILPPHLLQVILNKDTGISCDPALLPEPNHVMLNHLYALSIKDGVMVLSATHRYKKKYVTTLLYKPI
T1 sequence (P54619 whole entry partner): as the sequence (P54619 whole entry partner) above

| SMILES | EC50 [1] [µM] | Emax [1] [%] | EC50 [2] [µM] | Emax [2] [%] |
| --- | --- | --- | --- | --- |
| O=C(O)CCc1n[nH]c2cc(Cl)c(-c3ccc(-c4ccc5c(c4)CS(=O)(=O)C5)cc3)cc12 [Example 54, 3-(6-chloro-5-(4-(2,2-dioxido-1,3-dihydrobenzo[c]thiophen-5-yl)phenyl)-1H-indazol-3-yl)propanoic acid] | 0.217 | 61 | 1.01 | 64 |
| CCOc1cccc(-c2ccc(-c3cc4c(CCC(=O)O)n[nH]c4cc3Cl)cc2)c1O [Example 25, 3-(6-chloro-5-(3′-ethoxy-2′-hydroxy-[1,1′-biphenyl]-4-yl)-1H-indazol-3-yl)propanoic acid] | 0.144 | 71 | 0.107 | 61 |
| NC(=O)c1ccc(-c2ccc(-c3cc4c(CCC(=O)O)n[nH]c4cc3Cl)cc2)cc1 [Example 5, 3-(5-(4′-Carbamoyl-[1,1′-biphenyl]-4-yl)-6-chloro-1H-indazol-3-yl)propanoic acid] | 0.089 | 59 | 0.037 | 62 |
| COc1cccc(-c2ccc(-c3cc4c(CCC(=O)O)n[nH]c4cc3Cl)cc2)c1O [Example 2, 3-(6-Chloro-5-(2′-hydroxy-3′-methoxy-[1,1′-biphenyl]-4-yl)-1H-indazol-3-yl)propanoic acid] | 0.029 | 80 | 0.034 | 66 |
| O=C(O)CCc1n[nH]c2cc(F)c(-c3ccc(-c4ccccc4O)cc3)cc12 [Example 33, 3-(6-fluoro-5-(2′-hydroxy-[1,1′-biphenyl]-4-yl)-1H-indazol-3-yl)propanoic acid] | 0.301 | 57 | 0.196 | 57 |
| O=C(O)CSc1n[nH]c2cc(Cl)c(-c3ccc(-c4ccccc4O)cc3)cc12 [Example 11, 2-((6-chloro-5-(2′-hydroxy-[1,1′-biphenyl]-4-yl)-1H-indazol-3-yl)thio)acetic acid] | 0.053 | 62 | 0.06 | 44 |
| O=C(O)CCc1n[nH]c2cc(Cl)c(-c3ccc(-c4ccc(F)c(F)c4O)cc3)cc12 [Example 71, 3-(6-chloro-5-(3′,4′-difluoro-2′-hydroxy-[1,1′-biphenyl]-4-yl)-1H-indazol-3-yl)propanoic acid] | 0.279 | 73 | 0.994 | 60 |
| COc1c(Cl)ccc(-c2ccc(-c3cc4c(CCC(=O)O)n[nH]c4cc3Cl)cc2)c1O [Example 28, 3-(6-chloro-5-(4′-chloro-2′-hydroxy-3′-methoxy-[1,1′-biphenyl]-4-yl)-1H-indazol-3-yl)propanoic acid] | 0.277 | 73 | 0.136 | 63 |
| N#Cc1cc2[nH]nc(CCC(=O)O)c2cc1-c1ccc(-c2ccccc2O)cc1 [Example 35, 3-(6-cyano-5-(2′-hydroxy-[1,1′-biphenyl]-4-yl)-1H-indazol-3-yl)propanoic acid] | 0.137 | 67 | 0.198 | 47 |
| COc1cc(F)cc(-c2ccc(-c3cc4c(CCC(=O)O)n[nH]c4cc3Cl)cc2)c1O [Example 42, 3-(6-chloro-5-(5′-fluoro-2′-hydroxy-3′-methoxy-[1,1′-biphenyl]-4-yl)-1H-indazol-3-yl)propanoic acid] | 0.291 | 68 | 0.244 | 64 |
| COc1nc(-c2ccc(-c3cc4c(CCC(=O)O)n[nH]c4cc3Cl)cc2)cs1 [Example 59, 3-(6-chloro-5-(4-(2-methoxythiazol-4-yl)phenyl)-1H-indazol-3-yl)propanoic acid] | 0.609 | 30 | 0.546 | 13 |
| COc1ccc(-c2ccc(-c3cc4c(CCC(=O)O)n[nH]c4cc3Cl)cc2)c(O)c1OC [Example 52, 3-(6-chloro-5-(2′-hydroxy-3′,4′-dimethoxy-[1,1′-biphenyl]-4-yl)-1H-indazol-3-yl)propanoic acid] | 0.006 | 85 | 0.019 | 65 |
| CS(=N)(=O)c1ccc(-c2ccc(-c3cc4c(CCC(=O)O)n[nH]c4cc3Cl)cc2)cc1 (stereo not drawn) [Example 24, 3-(6-chloro-5-(4′-(S-methylsulfonimidoyl)-[1,1′-biphenyl]-4-yl)-1H-indazol-3-yl)propanoic acid] | 0.019 | 86 | 0.106 | 48 |
| NC(=O)COc1ccc(-c2ccc(-c3cc4c(CCC(=O)O)n[nH]c4cc3Cl)cc2)cc1 [Example 72, 3-(5-(4′-(2-amino-2-oxoethoxy)-[1,1′-biphenyl]-4-yl)-6-chloro-1H-indazol-3-yl)propanoic acid] | 0.099 | 103 | 1.83 | 114 |

The remaining compounds from weak to strong by EC50 [1], led by results:

| EC50 [1] [µM] | Emax [1] [%] | EC50 [2] [µM] | Emax [2] [%] | SMILES |
| --- | --- | --- | --- | --- |
| 0.692 | 55 | 0.645 | 34 | O=C(O)CCc1n[nH]c2cc(Cl)c(-c3ccc(-c4cccc(CO)c4)cc3)cc12 [Example 61, 3-(6-chloro-5-(3′-(hydroxymethyl)-[1,1′-biphenyl]-4-yl)-1H-indazol-3-yl)propanoic acid] |
| 0.365 | 74 | 1.09 | 63 | O=C(O)CCc1n[nH]c2cc(Cl)c(-c3ccc(-c4csc(CO)n4)cc3)cc12 [Example 66, 3-(6-chloro-5-(4-(2-(hydroxymethyl)thiazol-4-yl)phenyl)-1H-indazol-3-yl)propanoic acid] |
| 0.363 | 48 | 0.477 | 18 | Cc1ccc(-c2ccc(-c3cc4c(CCC(=O)O)n[nH]c4cc3Cl)cc2)s1 [Example 56, 3-(6-chloro-5-(4-(5-methylthiophen-2-yl)phenyl)-1H-indazol-3-yl)propanoic acid] |
| 0.151 | 65 | 0.097 | 56 | COc1ccc(-c2ccc(-c3cc4c(CCC(=O)O)n[nH]c4cc3Cl)cc2)c(O)c1 [Example 21, 3-(6-chloro-5-(2′-hydroxy-4′-methoxy-[1,1′-biphenyl]-4-yl)-1H-indazol-3-yl)propanoic acid] |
| 0.136 | 71 | 0.198 | 41 | CS(=O)(=O)Nc1ccc(-c2ccc(-c3cc4c(CCC(=O)O)n[nH]c4cc3Cl)cc2)cc1 [Example 32, 3-(6-chloro-5-(4′-(methylsulfonamido)-[1,1′-biphenyl]-4-yl)-1H-indazol-3-yl)propanoic acid] |
| 0.093 | 78 | 0.087 | 66 | COc1ccc(C)c(-c2ccc(-c3cc4c(CCCC(=O)O)n[nH]c4cc3Cl)cc2)c1O [Example 78, 4-(6-chloro-5-(2′-hydroxy-3′-methoxy-6′-methyl-[1,1′-biphenyl]-4-yl)-1H-indazol-3-yl)butanoic acid] |
| 0.046 | 72 | 0.162 | 63 | CN(C)C(=O)c1ccc(-c2ccc(-c3cc4c(CCC(=O)O)n[nH]c4cc3Cl)cc2)cc1 [Example 29, 3-(6-chloro-5-(4′-(dimethylcarbamoyl)-[1,1′-biphenyl]-4-yl)-1H-indazol-3-yl)propanoic acid] |
| 0.039 | 67 | 0.029 | 27 | O=C(CCc1n[nH]c2cc(Cl)c(-c3ccc(-c4ccccc4O)cc3)cc12)OC1OC(C(=O)O)C(O)C(O)C1O (stereo not drawn) [Example 79, 6-((3-(6-chloro-5-(2′-hydroxy-[1,1′-biphenyl]-4-yl)-1H-indazol-3-yl)propanoyl)oxy)-3,4,5-trihydroxytetrahydro-2H-pyran-2-carboxylic acid] |
| 0.035 | 75 | 0.076 | 52 | Cc1cccc(O)c1-c1ccc(-c2cc3c(CCC(=O)O)n[nH]c3cc2Cl)cc1 [Example 15, 3-(6-chloro-5-(2′-hydroxy-6′-methyl-[1,1′-biphenyl]-4-yl)-1H-indazol-3-yl)propanoic acid] |
| 0.029 | 76 | – | – | COCc1ccc(-c2ccc(-c3cc4c(CCC(=O)O)n[nH]c4cc3Cl)cc2)c(O)c1 [Example 10, 3-(6-chloro-5-(2′-hydroxy-4′-(methoxymethyl)-[1,1′-biphenyl]-4-yl)-1H-indazol-3-yl)propanoic acid] |
| 0.029 | 71 | 0.019 | 69 | O=C(O)CCc1n[nH]c2cc(Cl)c(-c3ccc(-c4ccc5c(c4O)OCC5)cc3)cc12 [Example 68, 3-(6-chloro-5-(4-(7-hydroxy-2,3-dihydrobenzofuran-6-yl)phenyl)-1H-indazol-3-yl)propanoic acid] |
| 0.006 | 67 | 0.013 | 53 | CNC(=O)c1ccc(-c2ccc(-c3cc4c(CCC(=O)O)n[nH]c4cc3Cl)cc2)cc1 [Example 76, 3-(6-chloro-5-(4′-(methylcarbamoyl)-[1,1′-biphenyl]-4-yl)-1H-indazol-3-yl)propanoic acid] |
